What was measured:
[1] = test system: beet armyworm (BAW; Spodoptera exigua: Lepidoptera); test: 96-well microtiter plate-based high throughput (HTS) diet bioassay on beet armyworm (BAW HTS); type: in vivo; settings: BAW eggs, 12 μg test compound per well, mortality at 6 d post-treatment, mortality class
Method: (§1) Bioassays on beet armyworm (BAW; Spodoptera exigua: Lepidoptera) were conducted using either a 96-well microtiter plate-based high throughput (HTS) bioassay or a 128-well diet tray assay. The HTS assay is a based on a modification of Lewer et al. J. Nat. Prod. 2006, 69, 1506. BAW eggs of were placed on top of artificial diet (100 μl) in each well of 96-well microtiter plate. The diet was pretreated with test compounds (12 μg dissolved in 30 μL of DMSO-acetone-water mixture) layered on top of the diet using a liquid handling system and then allowed to dry for several hours. Infested plates were then covered with a layer of sterile cotton batting and the plate lid, and then held in the dark at 29° C. Mortality was recoded at 6 d post-treatment. Each plate had six replicates. The percent mortality was calculated from the average of the six replicates. In the case of the 128-well diet assay, three to five second instar BAW larvae were placed in each well (3 mL) of the diet tray that had been previously filled with 1 mL of artificial diet to which 50 μg/cm^2 of the test compound (dissolved in 50 μL of 90:10 acetone-water mixture) had been applied (to each of eight wells) and then allowed to dry. Trays were covered with a clear self-adhesive cover, and held at 25° C., 14:10 light-dark for six days. Percent mortality was recorded for the larvae in each well; activity in the eight wells was then averaged. In Table 7, under the BAW HTS or BAW 50 heading, an “A” means that the compound was tested and at least 50 percent mortality was observed whereas, “B” means that either (1) the compound was tested and less than 50 percent mortality was observed or (2) the compound was not tested.

[2] = test system: beet armyworm (BAW; Spodoptera exigua: Lepidoptera); test: 128-well diet tray assay on beet armyworm (BAW 50); type: in vivo
Method: as §1

[3] = 96-well microtiter plate HTS diet assay
[4] = 128-well diet tray assay; 50 μg/cm^2 of test compound on diet; second instar BAW larvae; mortality class
[5] = 128-well diet tray assay, second instar BAW larvae, 50 μg/cm^2 of test compound on diet; mortality class

| SMILES | BAW HTS ([1]; 96-well HTS diet bioassay) | BAW HTS [1, 3] | BAW 50 ug/cm2 [2, 4] | BAW HTS ([1]; 96-well HTS diet assay) | BAW 50 ug/cm2 [2, 5] |
| --- | --- | --- | --- | --- | --- |
| CCC(O)c1ccc(-n2ccc(-c3ccc(C=NOC4OC(C)C(OC)C(OC)C4OC)cc3)n2)cc1 (mixture of isomers) [Compound 5] | B (either (1) the compound was tested and less than 50 percent mortality was observed or (2) the compound was not tested) | B (either (1) the compound was tested and less than 50 percent mortality was observed or (2) the compound was not tested) | A (the compound was tested and at least 50 percent mortality was observed) |  |  |
| CCOC(=O)C1CC(c2ccc(C=NOC3OC(C)C(OC)C(OC)C3OC)cc2)=NN1c1ccc(OC(F)(F)F)cc1 (mixture of isomers) [Compound 13] | B (either (1) the compound was tested and less than 50 percent mortality was observed or (2) the compound was not tested) | B (either (1) the compound was tested and less than 50 percent mortality was observed or (2) the compound was not tested) | A (the compound was tested and at least 50 percent mortality was observed) |  |  |
| COC1C(C)OC(ON=Cc2ccc(C3=NN(c4ccc(OC(F)(F)F)cc4)C(C(=O)OCC(C)C)C3)cc2)C(OC)C1OC (mixture of isomers) [Compound 14] | B (either (1) the compound was tested and less than 50 percent mortality was observed or (2) the compound was not tested) | B (either (1) the compound was tested and less than 50 percent mortality was observed or (2) the compound was not tested) | B (either (1) the compound was tested and less than 50 percent mortality was observed or (2) the compound was not tested) |  |  |
| CCOC1C(OC)C(C)OC(ON=Cc2ccc(C3NC(c4ccc(OC(F)(F)F)cc4)=NO3)cc2)C1OC (mixture of isomers) [Compound 130] | A (the compound was tested and at least 50 percent mortality was observed) | A (the compound was tested and at least 50 percent mortality was observed) | A (the compound was tested and at least 50 percent mortality was observed) |  |  |
| CCOC1C(OC)C(C)OC(OC(=O)Nc2ccc(C3=NN(c4ccc(OC(F)(F)C(F)(F)F)cc4)CC3CN(C)C)cc2)C1OC (mixture of isomers) [Compound 180] |  | B (either (1) the compound was tested and less than 50 percent mortality was observed or (2) the compound was not tested) | A (the compound was tested and at least 50 percent mortality was observed) | B (either (1) the compound was tested and less than 50 percent mortality was observed or (2) the compound was not tested) |  |
| COC1CC(OC(=O)Nc2ccc(-c3ncn(-c4ccc(OC(F)(F)C(F)(F)F)cc4)n3)cc2)OC(C)C1O (mixture of isomers) [Compound 244] |  | B (either (1) the compound was tested and less than 50 percent mortality was observed or (2) the compound was not tested) | A (the compound was tested and at least 50 percent mortality was observed) | B (either (1) the compound was tested and less than 50 percent mortality was observed or (2) the compound was not tested) |  |
| CCOC1C(OC)C(C)OC(OC(=O)Nc2ccc(C3=NC(c4ccc(OC(F)(F)F)cc4)CO3)cc2)C1OC (mixture of isomers) [Compound 247] |  | B (either (1) the compound was tested and less than 50 percent mortality was observed or (2) the compound was not tested) | A (the compound was tested and at least 50 percent mortality was observed) | B (either (1) the compound was tested and less than 50 percent mortality was observed or (2) the compound was not tested) |  |
| COc1cccc(-c2cnn(-c3ccc(C=NOC4OC(C)C(OC)C(OC)C4OC)cc3)c2)c1 (stereo not drawn) [Compound 1] | A (the compound was tested and at least 50 percent mortality was observed) |  |  | A (the compound was tested and at least 50 percent mortality was observed) | B (either (1) the compound was tested and less than 50 percent mortality was observed or (2) the compound was not tested) |
| COC1C(C)OC(ON=Cc2ccc(-n3ccc(-c4ccc(Cl)cc4)n3)cc2)C(OC)C1OC (stereo not drawn) [Compound 2] | A (the compound was tested and at least 50 percent mortality was observed) |  |  | A (the compound was tested and at least 50 percent mortality was observed) | B (either (1) the compound was tested and less than 50 percent mortality was observed or (2) the compound was not tested) |
| COC1C(C)OC(ON=Cc2ccc(-n3ccc(-c4ccccn4)n3)cc2)C(OC)C1OC (stereo not drawn) [Compound 3] | A (the compound was tested and at least 50 percent mortality was observed) |  |  | A (the compound was tested and at least 50 percent mortality was observed) | B (either (1) the compound was tested and less than 50 percent mortality was observed or (2) the compound was not tested) |
| COC1C(C)OC(ON=Cc2ccc(-n3ccc(-c4cccs4)n3)cc2)C(OC)C1OC (stereo not drawn) [Compound 4] | B (either (1) the compound was tested and less than 50 percent mortality was observed or (2) the compound was not tested) |  |  | B (either (1) the compound was tested and less than 50 percent mortality was observed or (2) the compound was not tested) | B (either (1) the compound was tested and less than 50 percent mortality was observed or (2) the compound was not tested) |
| COC1C(C)OC(ON=Cc2ccc(-c3ccn(-c4ccc(SC(F)(F)F)cc4)n3)cc2)C(OC)C1OC (stereo not drawn) [Compound 6] | B (either (1) the compound was tested and less than 50 percent mortality was observed or (2) the compound was not tested) | B (either (1) the compound was tested and less than 50 percent mortality was observed or (2) the compound was not tested) | A (the compound was tested and at least 50 percent mortality was observed) |  |  |
| COC1C(C)OC(ON=Cc2ccc(-c3ccn(-c4ccc(OC(F)(F)C(F)F)cc4)n3)cc2)C(OC)C1OC (stereo not drawn) [Compound 7] | B (either (1) the compound was tested and less than 50 percent mortality was observed or (2) the compound was not tested) | B (either (1) the compound was tested and less than 50 percent mortality was observed or (2) the compound was not tested) | A (the compound was tested and at least 50 percent mortality was observed) |  |  |
| COC1C(C)OC(ON=Cc2ccc(-c3ccn(-c4ccc(OC(F)(F)C(F)(F)F)cc4)n3)cc2)C(OC)C1OC (stereo not drawn) [Compound 8] | B (either (1) the compound was tested and less than 50 percent mortality was observed or (2) the compound was not tested) | B (either (1) the compound was tested and less than 50 percent mortality was observed or (2) the compound was not tested) | A (the compound was tested and at least 50 percent mortality was observed) |  |  |
| COC1C(C)OC(ON=Cc2ccc(-c3ccn(-c4ccc(SC)cc4)n3)cc2)C(OC)C1OC (stereo not drawn) [Compound 9] | B (either (1) the compound was tested and less than 50 percent mortality was observed or (2) the compound was not tested) | B (either (1) the compound was tested and less than 50 percent mortality was observed or (2) the compound was not tested) | A (the compound was tested and at least 50 percent mortality was observed) |  |  |
| COC1C(C)OC(ON=Cc2ccc(-c3ccn(-c4ccc(C(C)C)cc4)n3)cc2)C(OC)C1OC (stereo not drawn) [Compound 10] | B (either (1) the compound was tested and less than 50 percent mortality was observed or (2) the compound was not tested) | B (either (1) the compound was tested and less than 50 percent mortality was observed or (2) the compound was not tested) | A (the compound was tested and at least 50 percent mortality was observed) |  |  |
| COC1C(C)OC(ON=Cc2ccc(-c3ccn(-c4ccc(C(C)(C)C)cc4)n3)cc2)C(OC)C1OC (stereo not drawn) [Compound 11] | B (either (1) the compound was tested and less than 50 percent mortality was observed or (2) the compound was not tested) | B (either (1) the compound was tested and less than 50 percent mortality was observed or (2) the compound was not tested) | A (the compound was tested and at least 50 percent mortality was observed) |  |  |
| COC1C(C)OC(ON=Cc2ccc(-c3ccn(-c4ccc(OC(F)(F)F)cc4)n3)cc2)C(OC)C1OC (stereo not drawn) [Compound 12] | B (either (1) the compound was tested and less than 50 percent mortality was observed or (2) the compound was not tested) | B (either (1) the compound was tested and less than 50 percent mortality was observed or (2) the compound was not tested) | A (the compound was tested and at least 50 percent mortality was observed) |  |  |

Reference: patent publication US8178658B2 (Dow AgroSciences, LLC, priority 2008, dated 2012)
